Measurements from patent publication US20070093520A1, “Method of treatment of diarrhea-predominant irritable bowel syndrome in a subject” (priority 2005, published 2007).

Tested on: diarrhea-predominant IBS subjects
Assay: 3007 Study: open-label 52-week safety study, adverse events and withdrawals
Conditions: Overall

## Cc1nccn1C[C@H]1CCc2c(c3cccc4c3n2CCC4)C1=O [cilansetron, (R)-(−)-4,5,6,8,9,10-hexahydro-10-[(2-methyl-1H-imidazol-1-yl)methyl]-11H-pyrido-[3,2,1-jk]-carbazol-11-one]
  TEAE: Atopic Disorders: 5 (<1%) n (%)
  TEAE: Atrial Fibrillation: 1 (<1%) n (%)
  TEAE: Atrioventricular Block First Degree: 1 (<1%) n (%)
  TEAE: Back Injury NOS: 3 (<1%) n (%)
  TEAE: Back Pain: 18 (3%) n (%)
  TEAE: Back Pain Aggravated: 3 (<1%) n (%)
  TEAE: Bacteria Identification and Serology (Excl Mycobacteria): 1 (<1%) n (%)
  TEAE: Basal Cell Carcinoma: 6 (1%) n (%)
  TEAE: Behaviour and Socialisation Disturbances: 1 (<1%) n (%)
  TEAE: Benign Ovarian Tumour*: 1 (<1%) n (%)
  TEAE: Biliary Tract Disorder NOS: 1 (<1%) n (%)
  TEAE: Bilirubin Urine: 1 (<1%) n (%)
  TEAE: Binocular Eye Movement Disorder NOS: 1 (<1%) n (%)
  TEAE: Bladder Disorders NEC: 1 (<1%) n (%)
  TEAE: Bladder Infection NOS: 1 (<1%) n (%)
  TEAE: Bladder Infections and Inflammations: 1 (<1%) n (%)
  TEAE: Bladder Prolapse: 1 (<1%) n (%)
  TEAE: Bladder and Urethral Symptoms: 7 (1%) n (%)
  TEAE: Blood Alkaline Phosphatase NOS Increased: 3 (<1%) n (%)
  TEAE: Blood Bilirubin Increased: 4 (<1%) n (%)
  TEAE: Blood Cholesterol Increased: 19 (4%) n (%)
  TEAE: Blood Creatine Phosphokinase Increased: 27 (5%) n (%)
  TEAE: Blood Creatine Phosphokinase Mb Increased: 1 (<1%) n (%)
  TEAE: Blood Creatinine Increased: 4 (<1%) n (%)
  TEAE: Blood Glucose Increased: 2 (<1%) n (%)
  TEAE: Blood Potassium Increased: 1 (<1%) n (%)
  TEAE: Blood Pressure Increased: 5 (<1%) n (%)
  TEAE: Blood Sodium Increased: 1 (<1%) n (%)
  TEAE: Blood Triglycerides Increased: 10 (2%) n (%)
  TEAE: Blood Uric Acid Increased: 2 (<1%) n (%)
  TEAE: Blood Urine Present: 10 (2%) n (%)
  TEAE: Blood and Lymphatic System Disorders: 5 (<1%) n (%)
  TEAE: Blood in Stool: 8 (1%) n (%)
  TEAE: Bone Density Decreased: 1 (<1%) n (%)
  TEAE: Bone Disorder NOS: 1 (<1%) n (%)
  TEAE: Bone Disorders NEC: 3 (<1%) n (%)
  TEAE: Bone Injury: 1 (<1%) n (%)
  TEAE: Bone Neoplasm Malignant: 1 (<1%) n (%)
  TEAE: Bone Neoplasms Malignant (Excl Sarcomas): 1 (<1%) n (%)
  TEAE: Bone Spur: 1 (<1%) n (%)
  TEAE: Bradyarrhythmia: 1 (<1%) n (%)
  TEAE: Breast Calcifications*: 1 (<1%) n (%)
  TEAE: Breast Cancer NOS*: 2 (<1%) n (%)
  TEAE: Breast Disorder NOS*: 1 (<1%) n (%)
  TEAE: Breast Disorders NEC*: 5 (1%) n (%)
  TEAE: Breast Mass NOS*: 3 (<1%) n (%)
  TEAE: Breast and Nipple Neoplasms Malignant*: 2 (<1%) n (%)
  TEAE: Breath Sounds Decreased: 1 (<1%) n (%)
  TEAE: Breathing Abnormalities: 3 (<1%) n (%)
  TEAE: Bronchitis Acute NOS: 3 (<1%) n (%)
  TEAE: Bronchitis NOS: 23 (4%) n (%)
  TEAE: Bronchopneumonia NOS: 1 (<1%) n (%)
  TEAE: Bronchospasm and Obstruction: 4 (<1%) n (%)
  TEAE: Bruising, Ecchymosis and Purpura: 1 (<1%) n (%)
  TEAE: Bundle Branch Block Right: 1 (<1%) n (%)
  TEAE: Bunion: 2 (<1%) n (%)
  TEAE: Bursal Disorders: 6 (1%) n (%)
  TEAE: Bursitis: 3 (<1%) n (%)
  TEAE: Calculus Renal NOS: 3 (<1%) n (%)
  TEAE: Calculus Ureteric: 1 (<1%) n (%)
  TEAE: Candida Infections: 4 (<1%) n (%)
  TEAE: Candidal Infection NOS: 2 (<1%) n (%)
  TEAE: Carbohydrate Tolerance Analyses (Incl Diabetes): 2 (<1%) n (%)
  TEAE: Cardiac Auscultatory Investigations: 1 (<1%) n (%)
  TEAE: Cardiac Conduction Disorders: 2 (<1%) n (%)
  TEAE: Cardiac Disorders: 16 (3%) n (%)
  TEAE: Cardiac Fibrillation NOS: 1 (<1%) n (%)
  TEAE: Cardiac Flutter: 1 (<1%) n (%)
  TEAE: Cardiac Murmur NOS: 1 (<1%) n (%)
  TEAE: Cardiac Signs and Symptoms NEC: 4 (<1%) n (%)
  TEAE: Carotid Bruit: 1 (<1%) n (%)
  TEAE: Carpal Tunnel Syndrome: 3 (<1%) n (%)
  TEAE: Cartilage Disorder NOS: 1 (<1%) n (%)
  TEAE: Cartilage Disorders: 1 (<1%) n (%)
  TEAE: Cataract Unilateral: 1 (<1%) n (%)
  TEAE: Cataracts (Excl Congenital): 2 (<1%) n (%)
  TEAE: Cellulitis: 1 (<1%) n (%)
  TEAE: Cerumen Impaction: 2 (<1%) n (%)
  TEAE: Cervical Spasm: 1 (<1%) n (%)
  TEAE: Change in Bowel Habit NOS: 1 (<1%) n (%)
  TEAE: Chapped Lips: 1 (<1%) n (%)
  TEAE: Chest Discomfort: 1 (<1%) n (%)
  TEAE: Chest Pain: 7 (1%) n (%)
  TEAE: Chest Tightness: 1 (<1%) n (%)
  TEAE: Chest Wall Pain: 2 (<1%) n (%)
  TEAE: Cholecystitis and Cholelithiasis: 2 (<1%) n (%)
  TEAE: Cholelithiasis: 2 (<1%) n (%)
  TEAE: Cholesterol Analyses: 19 (4%) n (%)
  TEAE: Colitis (Excl Infective): 1 (<1%) n (%)
  TEAE: Colitis Ischaemic: 1 (<1%) n (%)
  TEAE: Colonic Polyp: 1 (<1%) n (%)
  TEAE: Congenital, Familial and Genetic Disorders: 1 (<1%) n (%)
  TEAE: Conjunctival Infections, Irritations and Inflammations: 2 (<1%) n (%)
  TEAE: Conjunctivitis: 1 (<1%) n (%)
  TEAE: Conjunctivitis Allergic: 1 (<1%) n (%)
  TEAE: Connective Tissue Disorders (Excl Le): 4 (<1%) n (%)
  TEAE: Constipation: 128 (24%) n (%)
  TEAE: Contusion: 3 (<1%) n (%)
  TEAE: Cough: 11 (2%) n (%)
  TEAE: Coughing and Associated Symptoms: 12 (2%) n (%)
  TEAE: Cyst NOS: 1 (<1%) n (%)
  TEAE: Cystitis Interstitial: 1 (<1%) n (%)
  TEAE: Cystitis NOS: 1 (<1%) n (%)
  TEAE: Dacryostenosis Acquired: 1 (<1%) n (%)
  TEAE: Deafness NOS: 1 (<1%) n (%)
  TEAE: Dehydration: 2 (<1%) n (%)
  TEAE: Dental Disorders NEC: 1 (<1%) n (%)
  TEAE: Dental Infections - Pathogen Class Unspecified: 11 (2%) n (%)
  TEAE: Dental Pain and Sensation Disorders: 3 (<1%) n (%)
  TEAE: Depression: 9 (2%) n (%)
  TEAE: Depression Aggravated: 4 (<1%) n (%)
  TEAE: Depressive Disorders: 13 (2%) n (%)
  TEAE: Dermal and Epidermal Conditions NEC: 5 (<1%) n (%)
  TEAE: Dermatitis Allergic: 1 (<1%) n (%)
  TEAE: Dermatitis Ascribed to Specific Agent: 1 (<1%) n (%)
  TEAE: Dermatitis Contact: 2 (<1%) n (%)
  TEAE: Dermatitis Medicamentosa: 1 (<1%) n (%)
  TEAE: Dermatitis NOS: 1 (<1%) n (%)
  TEAE: Dermatitis and Eczema: 6 (1%) n (%)
  TEAE: Dermographism: 1 (<1%) n (%)
  TEAE: Diabetes Mellitus (Incl Subtypes): 3 (<1%) n (%)
  TEAE: Diabetes Mellitus Aggravated: 2 (<1%) n (%)
  TEAE: Diabetes Mellitus Non-Insulin-Dependent: 1 (<1%) n (%)
  TEAE: Diaphragmatic Hernias: 2 (<1%) n (%)
  TEAE: Diarrhoea (Excl Infective): 39 (7%) n (%)
  TEAE: Diarrhoea Aggravated: 5 (<1%) n (%)
  TEAE: Diarrhoea Haemorrhagic: 2 (<1%) n (%)
  TEAE: Diarrhoea NOS: 31 (6%) n (%)
  TEAE: Disturbances in Consciousness NEC: 4 (<1%) n (%)
  TEAE: Disturbances in Initiating and Maintaining Sleep: 6 (1%) n (%)
  TEAE: Diverticulitis NOS: 2 (<1%) n (%)
  TEAE: Diverticulum Inflammations: 2 (<1%) n (%)
  TEAE: Dizziness: 6 (1%) n (%)
  TEAE: Drug Hypersensitivity: 1 (<1%) n (%)
  TEAE: Dry Eye NOS: 2 (<1%) n (%)
  TEAE: Dry Mouth: 2 (<1%) n (%)
  TEAE: Dysarthria: 1 (<1%) n (%)
  TEAE: Dysfunctional Uterine Bleeding*: 1 (<1%) n (%)
  TEAE: Dyshidrosis: 1 (<1%) n (%)
  TEAE: Dyskinesias and Movement Disorders NEC: 1 (<1%) n (%)
  TEAE: Dyspepsia: 13 (2%) n (%)
  TEAE: Dyspepsia Aggravated: 2 (<1%) n (%)
  TEAE: Dyspeptic Signs and Symptoms: 17 (3%) n (%)
  TEAE: Dyspnoea NOS: 3 (<1%) n (%)
  TEAE: Dysuria: 1 (<1%) n (%)
  TEAE: ECG Investigations: 2 (<1%) n (%)
  TEAE: Ear Disorders NEC: 2 (<1%) n (%)
  TEAE: Ear Infection NOS: 4 (<1%) n (%)
  TEAE: Ear Infections: 5 (<1%) n (%)
  TEAE: Ear Pain: 2 (<1%) n (%)
  TEAE: Ear and Labyrinth Disorders: 10 (2%) n (%)
  TEAE: Eczema: 2 (<1%) n (%)
  TEAE: Electrocardiogram Qrs Complex Abnormal: 1 (<1%) n (%)
  TEAE: Electrocardiogram T Wave Inversion: 1 (<1%) n (%)
  TEAE: Elevated Cholesterol: 6 (1%) n (%)
  TEAE: Endocrine Disorders: 4 (<1%) n (%)
  TEAE: Endometriosis*: 2 (<1%) n (%)
  TEAE: Enteritis: 1 (<1%) n (%)
  TEAE: Epigastric Discomfort: 1 (<1%) n (%)
  TEAE: Eructation: 2 (<1%) n (%)
  TEAE: Erythema: 1 (<1%) n (%)
  TEAE: Erythemas: 1 (<1%) n (%)
  TEAE: External Ear Disorders NEC: 2 (<1%) n (%)
  TEAE: Eye Disorders: 13 (2%) n (%)
  TEAE: Eye Injuries NEC: 1 (<1%) n (%)
  TEAE: Faecal Abnormality NOS: 2 (<1%) n (%)
  TEAE: Faecal Impaction: 1 (<1%) n (%)
  TEAE: Faecal Incontinence: 4 (<1%) n (%)
  TEAE: Faecal Occult Blood Positive: 31 (6%) n (%)
